Experimental data reported in the NIST ThermoML archive (doi:10.1021/je0601457).

Assay: xn = mol fraction of the nth substance listed

c1cnccn1 [pyrazine] + O=C=O
Fluid (supercritical or subcritical phases), Linear displacement technique
Conditions | mass density [kg/m3]
321.55 K, 14590 kPa, x1 = 0.177 | 866
322.35 K, 7410 kPa, x1 = 0.495 | 980
322.35 K, 10310 kPa, x1 = 0.495 | 990
322.35 K, 13000 kPa, x1 = 0.495 | 963
323.35 K, 10030 kPa, x1 = 0.074 | 825
323.35 K, 10240 kPa, x1 = 0.074 | 835
323.35 K, 11900 kPa, x1 = 0.074 | 876
324.65 K, 9340 kPa, x1 = 0.015 | 394
324.65 K, 9620 kPa, x1 = 0.015 | 408
324.65 K, 9830 kPa, x1 = 0.015 | 423
324.65 K, 10970 kPa, x1 = 0.015 | 576
324.65 K, 11380 kPa, x1 = 0.015 | 611
324.65 K, 11620 kPa, x1 = 0.015 | 627
324.65 K, 11760 kPa, x1 = 0.015 | 640
325.85 K, 10170 kPa, x1 = 0.116 | 739
325.85 K, 13140 kPa, x1 = 0.116 | 767
326.15 K, 9900 kPa, x1 = 0.019 | 460
326.15 K, 10520 kPa, x1 = 0.019 | 580
326.15 K, 11140 kPa, x1 = 0.019 | 656
326.15 K, 11520 kPa, x1 = 0.019 | 688
326.15 K, 12310 kPa, x1 = 0.019 | 729
326.65 K, 8860 kPa, x1 = 0.397 | 1023
326.65 K, 11070 kPa, x1 = 0.397 | 1027
326.65 K, 14100 kPa, x1 = 0.397 | 1036
327.25 K, 10170 kPa, x1 = 0.146 | 980
327.25 K, 15900 kPa, x1 = 0.146 | 990
328.15 K, 11830 kPa, x1 = 0.308 | 980
328.15 K, 13760 kPa, x1 = 0.308 | 990
328.15 K, 15340 kPa, x1 = 0.308 | 997
332.95 K, 18030 kPa, x1 = 0.224 | 879
334.05 K, 11550 kPa, x1 = 0.177 | 803
334.05 K, 11900 kPa, x1 = 0.177 | 809
334.05 K, 15590 kPa, x1 = 0.177 | 831
334.75 K, 10340 kPa, x1 = 0.495 | 980
334.75 K, 13550 kPa, x1 = 0.495 | 987
334.75 K, 19410 kPa, x1 = 0.495 | 1002
337.05 K, 11660 kPa, x1 = 0.146 | 760
337.05 K, 15140 kPa, x1 = 0.146 | 792
337.85 K, 12170 kPa, x1 = 0.09 | 738
337.85 K, 12590 kPa, x1 = 0.09 | 752
337.85 K, 15900 kPa, x1 = 0.09 | 815
338.45 K, 11520 kPa, x1 = 0.019 | 475
338.45 K, 11970 kPa, x1 = 0.019 | 512
338.45 K, 12170 kPa, x1 = 0.019 | 526
338.45 K, 12590 kPa, x1 = 0.019 | 565
339.45 K, 12590 kPa, x1 = 0.074 | 708
339.45 K, 13280 kPa, x1 = 0.074 | 750
340.95 K, 12380 kPa, x1 = 0.116 | 693
340.95 K, 15210 kPa, x1 = 0.116 | 739
345.05 K, 12450 kPa, x1 = 0.224 | 823
345.05 K, 19340 kPa, x1 = 0.224 | 858
345.55 K, 10380 kPa, x1 = 0.397 | 995
345.55 K, 12480 kPa, x1 = 0.397 | 999
345.55 K, 12860 kPa, x1 = 0.397 | 1002
347.75 K, 13030 kPa, x1 = 0.177 | 758
347.75 K, 14100 kPa, x1 = 0.177 | 770
347.75 K, 16790 kPa, x1 = 0.177 | 792
348.05 K, 12310 kPa, x1 = 0.308 | 965
348.05 K, 17620 kPa, x1 = 0.308 | 986
348.05 K, 19720 kPa, x1 = 0.308 | 996
348.95 K, 13380 kPa, x1 = 0.09 | 684
348.95 K, 13690 kPa, x1 = 0.09 | 683
348.95 K, 16450 kPa, x1 = 0.09 | 771
350.55 K, 13760 kPa, x1 = 0.116 | 665
350.55 K, 15520 kPa, x1 = 0.116 | 707
350.85 K, 13410 kPa, x1 = 0.146 | 708
351.95 K, 13450 kPa, x1 = 0.074 | 604
351.95 K, 16280 kPa, x1 = 0.074 | 719
352.35 K, 11140 kPa, x1 = 0.019 | 335
352.35 K, 11210 kPa, x1 = 0.019 | 352
352.35 K, 12310 kPa, x1 = 0.019 | 415
352.35 K, 12480 kPa, x1 = 0.019 | 428
352.35 K, 12790 kPa, x1 = 0.019 | 443
360.85 K, 14860 kPa, x1 = 0.116 | 630
360.85 K, 17720 kPa, x1 = 0.116 | 695
362.25 K, 14720 kPa, x1 = 0.177 | 709
362.25 K, 14830 kPa, x1 = 0.177 | 712
362.25 K, 19480 kPa, x1 = 0.177 | 761
362.35 K, 14660 kPa, x1 = 0.224 | 779
362.35 K, 18660 kPa, x1 = 0.224 | 802
365.65 K, 15210 kPa, x1 = 0.09 | 591
366.25 K, 14930 kPa, x1 = 0.074 | 542
366.25 K, 15760 kPa, x1 = 0.074 | 547
366.25 K, 16860 kPa, x1 = 0.074 | 511
369.65 K, 14550 kPa, x1 = 0.397 | 964
369.65 K, 16410 kPa, x1 = 0.397 | 968
369.65 K, 20720 kPa, x1 = 0.397 | 982
372.55 K, 11480 kPa, x1 = 0.495 | 959
372.55 K, 12720 kPa, x1 = 0.495 | 962
372.55 K, 15000 kPa, x1 = 0.495 | 970

linear displacement
Conditions | mass density [kg/m3]
321.55 K, Liquid, x1 = 0.177 | 834
322.35 K, Liquid, x1 = 0.495 | 975
323.35 K, Liquid, x1 = 0.074 | 810
324.65 K, Gas, x1 = 0.015 | 382
325.85 K, Liquid, x1 = 0.116 | 734
326.15 K, Gas, x1 = 0.019 | 442
326.65 K, Liquid, x1 = 0.397 | 1017
327.25 K, Liquid, x1 = 0.146 | 790
328.15 K, Liquid, x1 = 0.308 | 970
332.95 K, Liquid, x1 = 0.224 | 842
334.05 K, Liquid, x1 = 0.177 | 795
334.75 K, Liquid, x1 = 0.495 | 972
337.05 K, Liquid, x1 = 0.146 | 753
337.85 K, Liquid, x1 = 0.09 | 727
338.45 K, Gas, x1 = 0.019 | 431
339.45 K, Liquid, x1 = 0.074 | 695
340.95 K, Liquid, x1 = 0.116 | 684
345.05 K, Liquid, x1 = 0.224 | 816
345.55 K, Liquid, x1 = 0.397 | 991
347.75 K, Liquid, x1 = 0.177 | 751
348.05 K, Liquid, x1 = 0.308 | 957
348.95 K, Liquid, x1 = 0.09 | 672
350.55 K, Liquid, x1 = 0.116 | 651
350.85 K, Liquid, x1 = 0.146 | 703
351.95 K, Liquid, x1 = 0.074 | 589
352.35 K, Gas, x1 = 0.019 | 324
360.85 K, Liquid, x1 = 0.116 | 620
362.25 K, Liquid, x1 = 0.177 | 704
362.35 K, Liquid, x1 = 0.224 | 770
365.65 K, Liquid, x1 = 0.09 | 582
366.25 K, Liquid, x1 = 0.074 | 532
369.65 K, Liquid, x1 = 0.397 | 952
372.55 K, Liquid, x1 = 0.495 | 955
